Literature values as cited in publication PMC6437649 (Molecular Pharmaceutics, 2019).

In the case of C#C[C@]1(O)CC[C@H]2[C@@H]3CCC4=Cc5oncc5C[C@]4(C)[C@H]3CC[C@@]21C [danazol], the “log P” value is given as 4.9.
